Assay results taken from US5112595A, “99MTC(III) myocardial imaging agents and method of use” (Mallinckrodt Medical, Inc., priority 1990, dated 1992).

Experiment: Biodistribution of Tc-99m (III) complexes in guinea pigs
Type: in vivo
Text: Biodistribution Data of Selected Tc-99m (III) Complexes in Guinea Pigs

Substance: trans-[1,2-bis[dihydro-2,2,5,5-tetramethyl-3(2H)furanone-4-methyleneamino]ethane]bis-[tris(3-methoxypropyl)phosphine]technetium-99 m(III) [Complex I]
- % Heart uptake (5 min): 0.8 %Injected dose/Organ
- % Heart uptake (60 min): 0.9 %Injected dose/Organ
- Heart/Blood (ratio at 5 min): 4.6
- Heart/Liver (ratio at 5 min): 1.5
- Heart/Blood (ratio at 60 min): 35.6
- Heart/Liver (ratio at 60 min): 6.6

Substance: trans-[1,2-bis[dihydro-2,2,5,5-tetramethyl-3(2H)furanone-4-methyleneamino]ethane]bis-tris(2-(2-(1,3-dioxanyl))]ethylphosphine]technetium-99m(III) [Complex IV]
- % Heart uptake (5 min): 0.8 %Injected dose/Organ
- % Heart uptake (60 min): 0.9 %Injected dose/Organ
- Heart/Blood (ratio at 5 min): 5.4
- Heart/Liver (ratio at 5 min): 1.2
- Heart/Blood (ratio at 60 min): 58.6
- Heart/Liver (ratio at 60 min): 3.0

Substance: trans-[1,2-bis[dihydro-2,2,5,5-tetramethyl-3(2H)furanthione-4-methyleneamino]ethane]-bis[tris(3-methoxypropyl)phosphine]technetium-99m (III) [Complex III]
- % Heart uptake (5 min): 1.1 %Injected dose/Organ
- % Heart uptake (60 min): 1.0 %Injected dose/Organ
- Heart/Blood (ratio at 5 min): 5.9
- Heart/Liver (ratio at 5 min): 0.9
- Heart/Blood (ratio at 60 min): 3.5
- Heart/Liver (ratio at 60 min): 1.5

Substance: trans-[1-[dihydro-2,2,5,5-tetramethyl-3(2H)furanthione-4-methyleneamino]-2-[dihydro-2,2,5,5-tetramethyl-3(2H)furanone-4-methyleneaminoethane]bis[tris(3-methoxypropyl)phosphine]technetium99 m(III) [Complex II]
- % Heart uptake (5 min): 0.9 %Injected dose/Organ
- % Heart uptake (60 min): 0.8 %Injected dose/Organ
- Heart/Blood (ratio at 5 min): 6.1
- Heart/Liver (ratio at 5 min): 1.6
- Heart/Blood (ratio at 60 min): 26.5
- Heart/Liver (ratio at 60 min): 5.6
